Experimental data taken from US10125138B2, “Triazolotriazinone derivatives having activity a s herbicides” (Syngenta Participations AG, priority 2015, dated 2018).

Tests used:
Type in all cases: in vivo
Conditions in all cases: 1000 g/h, evaluated after 13 days, five point scale
Lolium perenne (LOLPE) [1] = experiment: Post-emergence glasshouse herbicide test, Lolium perenne
Description: (§1) Seeds of a variety of test species are sown in standard soil in pots (Lolium perenne (LOLPE), Solanum nigrum (SOLNI), Amaranthus retoflexus (AMARE), Setaria faberi (SETFA), Echinochloa crus-galli (ECHCG), Ipomoea hederacea (IPOHE)). After cultivation for one day (pre-emergence) or after 8 days cultivation (post-emergence) under controlled conditions in a glasshouse (at 24/16° C., day/night; 14 hours light; 65% humidity), the plants are sprayed with an aqueous spray solution derived from the formulation of the technical active ingredient in acetone/water (50:50) solution containing 0.5% Tween 20 (polyoxyethelyene sorbitan monolaurate, CAS RN 9005-64-5). […] The test plants are then grown in a glasshouse under controlled conditions in a glasshouse (at 24/16° C., day/night; 14 hours light; 65% humidity) and watered twice daily. After 13 days for pre and post-emergence, the test is evaluated for the percentage damage caused to the plant. The biological activities are shown in the following table on a five point scale (5=80-100%; 4=60-79%; 3=40-59%; 2=20-39%; 1=0-19%).

Solanum nigrum (SOLNI) [2] = experiment: Post-emergence glasshouse herbicide test, Solanum nigrum
Description: (§2) Seeds of a variety of test species are sown in standard soil in pots (Lolium perenne (LOLPE), Solanum nigrum (SOLNI), Amaranthus retoflexus (AMARE), Setaria faberi (SETFA), Echinochloa crus-galli (ECHCG), Ipomoea hederacea (IPOHE)). After cultivation for one day (pre-emergence) or after 8 days cultivation (post-emergence) under controlled conditions in a glasshouse (at 24/16° C., day/night; 14 hours light; 65% humidity), the plants are sprayed with an aqueous spray solution derived from the formulation of the technical active ingredient in acetone/water (50:50) solution containing 0.5% Tween 20 (polyoxyethelyene sorbitan monolaurate, CAS RN 9005-64-5). Compounds are applied at 1000 g/h. The test plants are then grown in a glasshouse under controlled conditions in a glasshouse (at 24/16° C., day/night; 14 hours light; 65% humidity) and watered twice daily. After 13 days for pre and post-emergence, the test is evaluated for the percentage damage caused to the plant. The biological activities are shown in the following table on a five point scale (5=80-100%; 4=60-79%; 3=40-59%; 2=20-39%; 1=0-19%).

[3] = tested on: Amaranthus retoflexus (AMARE); experiment: Post-emergence glasshouse herbicide test, Amaranthus retoflexus
Description: as §1

Setaria faberi (SETFA) [4] = experiment: Post-emergence glasshouse herbicide test, Setaria faberi
Description: as §1

[5] = tested on: Echinochloa crus-galli (ECHCG); experiment: Post-emergence glasshouse herbicide test, Echinochloa crus-galli
Description: as §1

[6] = tested on: Ipomoea hederacea (IPOHE); experiment: Post-emergence glasshouse herbicide test, Ipomoea hederacea
Description: as §1

Lolium perenne (LOLPE) [7] = experiment: Pre-emergence glasshouse herbicide test, Lolium perenne
Description: as §1

Solanum nigrum (SOLNI) [8] = experiment: Pre-emergence glasshouse herbicide test, Solanum nigrum
Description: as §2

[9] = tested on: Amaranthus retoflexus (AMARE); experiment: Pre-emergence glasshouse herbicide test, Amaranthus retoflexus
Description: as §1

Setaria faberi (SETFA) [10] = experiment: Pre-emergence glasshouse herbicide test, Setaria faberi
Description: as §1

[11] = tested on: Echinochloa crus-galli (ECHCG); experiment: Pre-emergence glasshouse herbicide test, Echinochloa crus-galli
Description: as §1

[12] = tested on: Ipomoea hederacea (IPOHE); experiment: Pre-emergence glasshouse herbicide test, Ipomoea hederacea
Description: as §1

Compound | percentage damage caused to the plant, POST Application LOLPE (Lolium perenne (LOLPE) [1]) | percentage damage caused to the plant, POST Application SOLNI (Solanum nigrum (SOLNI) [2]) | percentage damage caused to the plant, POST Application AMARE [3] | percentage damage caused to the plant, POST Application SETFA (Setaria faberi (SETFA) [4]) | percentage damage caused to the plant, POST Application ECHCG [5] | percentage damage caused to the plant, POST Application IPOHE [6] | percentage damage caused to the plant, PRE Application LOLPE (Lolium perenne (LOLPE) [7]) | percentage damage caused to the plant, PRE Application SOLNI (Solanum nigrum (SOLNI) [8]) | percentage damage caused to the plant, PRE Application AMARE [9] | percentage damage caused to the plant, PRE Application SETFA (Setaria faberi (SETFA) [10]) | percentage damage caused to the plant, PRE Application ECHCG [11] | percentage damage caused to the plant, PRE Application IPOHE [12]
O=C(Nc1nnnn1-c1ccccc1)c1nn2cnn(-c3ccccc3)c2nc1=O [Compound 1.027] | 2 (2=20-39%) | 5 (5=80-100%) | 4 (4=60-79%) | 2 (2=20-39%) | 1 (1=0-19%) | 3 (3=40-59%) | 1 (1=0-19%) | 5 (5=80-100%) | 5 (5=80-100%) | 2 (2=20-39%) | 1 (1=0-19%) | 4 (4=60-79%)
CCCn1nnnc1NC(=O)c1nn2cnn(-c3ccccc3C)c2nc1=O [Compound 1.028] | 5 (5=80-100%) | 5 (5=80-100%) | 5 (5=80-100%) | 5 (5=80-100%) | 5 (5=80-100%) | 5 (5=80-100%) | 5 (5=80-100%) | 5 (5=80-100%) | 5 (5=80-100%) | 5 (5=80-100%) | 5 (5=80-100%) | 5 (5=80-100%)
Cc1ccccc1-n1ncn2nc(C(=O)Nc3nnnn3C)c(=O)nc12 [Compound 1.030] | 4 (4=60-79%) | 5 (5=80-100%) | 5 (5=80-100%) | 5 (5=80-100%) | 5 (5=80-100%) | 5 (5=80-100%) | 4 (4=60-79%) | 5 (5=80-100%) | 5 (5=80-100%) | 5 (5=80-100%) | 5 (5=80-100%) | 5 (5=80-100%)
CCCn1nnnc1NC(=O)c1nn2cnn(CCC)c2nc1=O [Compound 1.031] | 5 (5=80-100%) | 5 (5=80-100%) | 5 (5=80-100%) | 5 (5=80-100%) | 5 (5=80-100%) | 5 (5=80-100%) | 5 (5=80-100%) | 5 (5=80-100%) | 5 (5=80-100%) | 4 (4=60-79%) | 5 (5=80-100%) | 5 (5=80-100%)
CCn1nnnc1NC(=O)c1nn2cnn(-c3cccc(Cl)c3)c2nc1=O [Compound 1.033] | 4 (4=60-79%) | 5 (5=80-100%) | 5 (5=80-100%) | 5 (5=80-100%) | 5 (5=80-100%) | 5 (5=80-100%) | 5 (5=80-100%) | 5 (5=80-100%) | 5 (5=80-100%) | 4 (4=60-79%) | 5 (5=80-100%) | 2 (2=20-39%)
